In patent publication US8163793B2, “Proline derivatives” (Hoffman-La Roche Inc., priority 2009, dated 2012):
Read-outs that look alike come from different tables or passages of the source.

Key:
Cat L = Cat L (UniProt P07711); experiment: Cathepsin enzyme inhibition assay (fluorogenic peptide substrate Z-Val-Val-Arg-AMC), Cathepsin L; type: biochemical, human and mouse
Procedure, shortened: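 Fluorogenic cleavage of Z-Val-Val-Arg-AMC (20 μM) by 1 nM Cat L was monitored at ex 360/em 465 nm for 20 min, the linear phase. The buffer was 100 mM potassium phosphate pH 6.5 with 5 mM EDTA and DTT. IC50 values were derived by standard methods, in μM.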

Cathepsin S = Cathepsin S (UniProt P25774); experiment: Cathepsin enzyme inhibition assay (fluorogenic peptide substrate Z-Val-Val-Arg-AMC), Cathepsin S; type: biochemical, human and mouse
Procedure, shortened: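 Compounds were combined with 1 nM human or mouse enzyme, and substrate then started the reaction. The buffer was potassium phosphate (100 mM, pH 6.5) containing EDTA-Na 5 mM, Triton X-100 0.001% and […] 5 mM.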

[1] = enzyme 1 nM, substrate 20 μM, pH 6.5; read-out: CatL IC50
[2] = enzyme 1 nM, substrate 20 μM, pH 6.5; read-out: CatS IC50

SMILES | IC50 (Cat L; [1]) | IC50 (Cathepsin S; [2]) | IC50 (Cat L; read-out: CatL IC50; enzyme 1 nM, substrate 20 μM, pH 6.5) | IC50 (Cathepsin S; read-out: CatS IC50; enzyme 1 nM, substrate 20 μM, pH 6.5)
N#CC1(NC(=O)[C@@H]2C[C@@H](S(=O)(=O)c3ccc(OCC(F)(F)F)cc3Cl)CN2C(=O)C2CC2(F)F)CC1 (stereo partly drawn) [Example 241, (2S,4R)-4-[2-Chloro-4-(2,2,2-trifluoro-ethoxy)-benzenesulfonyl]-1-(2,2-difluoro-cyclopropanecarbonyl)-pyrrolidine-2-carboxylic acid (1-cyano-cyclopropyl)-amide] | 31.8 µM | 0.33 nM | – | –
CC(C)(C)OC(=O)NC1(C(=O)N2C[C@H](S(=O)(=O)c3ccc(OCC(F)(F)F)cc3Cl)C[C@H]2C(=O)NC2(C#N)CC2)CC1 [Example 242, {1-[(2S,4R)-4-[2-Chloro-4-(2,2,2-trifluoro-ethoxy)-benzenesulfonyl]-2-(1-cyano-cyclopropylcarbamoyl)-pyrrolidine-1-carbonyl]-cyclopropyl}-carbamic Acid Tert-butyl ester] | 1.43 µM | 4.75 nM | – | –
N#CC1(NC(=O)[C@@H]2C[C@@H](S(=O)(=O)c3ccc(OCC(F)(F)F)cc3Cl)CN2C(=O)C2(C#N)CC2)CC1 [Example 243, (2S,4R)-4-[2-Chloro-4-(2,2,2-trifluoro-ethoxy)-benzenesulfonyl]-1-(1-cyano-cyclopropanecarbonyl)-pyrrolidine-2-carboxylic acid (1-cyano-cyclopropyl)-amide] | 12.3 µM | 0.455 nM | – | –
N#CC1(NC(=O)[C@@H]2C[C@@H](S(=O)(=O)c3ccc(OCC(F)(F)F)cc3Cl)CN2C(=O)Cc2ccc(Cl)cc2)CC1 [Example 244, (2S,4R)-1-[2-(4-Chloro-phenyl)-acetyl]-4-[2-chloro-4-(2,2,2-trifluoro-ethoxy)-benzenesulfonyl]-pyrrolidine-2-carboxylic acid (1-cyano-cyclopropyl)-amide] | 5.9 µM | 3.15 nM | – | –
N#CC1(NC(=O)[C@@H]2C[C@@H](S(=O)(=O)c3ccc(-c4ccnc(Cl)c4)cc3C(F)(F)F)CN2C(=O)C2(C(F)(F)F)CC2)CC1 [Example 245, (2S,4R)-4-[4-(2-Chloro-pyridin-4-yl)-2-trifluoromethyl-benzenesulfonyl]-1-(1-trifluoromethyl-cyclopropanecarbonyl)-pyrrolidine-2-carboxylic acid (1-cyano-cyclopropyl)-amide] | 39.2 µM | 0.168 nM | – | –
N#CC1(NC(=O)[C@@H]2C[C@@H](S(=O)(=O)c3ccc(OCC(F)(F)F)cc3Cl)CN2C(=O)C2CC2c2ccccc2)CC1 (stereo partly shown) [Example 246] | 0.185 µM | 0.245 nM | – | –
N#CC1(NC(=O)[C@@H]2C[C@@H](S(=O)(=O)c3ccc(OCC(F)(F)F)cc3Cl)CN2C(=O)C2CC2c2ccccc2)CC1 (stereo partly shown) [Example 247] | 3.44 µM | 0.385 nM | – | –
Cc1cc(-c2ccc(S(=O)(=O)[C@@H]3C[C@@H](C(=O)NC4(C#N)CC4)N(C(=O)C4(C(F)(F)F)CC4)C3)c(C(F)(F)F)c2)ccn1 [Example 248, (2S,4R)-4-[4-(2-Methyl-pyridin-4-yl)-2-trifluoromethyl-benzenesulfonyl]-1-(1-trifluoromethyl-cyclopropanecarbonyl)-pyrrolidine-2-carboxylic acid (1-cyano-cyclopropyl)-amide] | – | – | 54.7 µM | 0.55 nM
Cn1cc(-c2ccc(S(=O)(=O)[C@@H]3C[C@@H](C(=O)NC4(C#N)CC4)N(C(=O)C4(C)CC4)C3)c(C(F)(F)F)c2)cn1 [Example 249, (2S,4R)-1-(1-Methyl-cyclopropanecarbonyl)-4-[4-(1-methyl-1H-pyrazol-4-yl)-2-trifluoromethyl-benzenesulfonyl]-pyrrolidine-2-carboxylic acid (1-cyano-cyclopropyl)-amide] | 25.8 µM | 0.255 nM | – | –
N#CC1(NC(=O)[C@@H]2C[C@@H](S(=O)(=O)c3ccc(OCC(F)(F)F)cc3Cl)CN2C(=O)C(F)(F)c2ccccc2)CC1 [Example 251, (2S,4R)-4-[2-Chloro-4-(2,2,2-trifluoro-ethoxy)-benzenesulfonyl]-1-(2,2-difluoro-2-phenyl-acetyl)-pyrrolidine-2-carboxylic acid (1-cyano-cyclopropyl)-amide] | 1.25 µM | 0.29 nM | – | –
N#CC1(NC(=O)[C@@H]2C[C@@H](S(=O)(=O)c3ccc(OCC(F)(F)F)cc3Cl)CN2C(=O)Oc2ccc(Cl)cc2)CC1 [Example 252, (2S,4R)-4-[2-Chloro-4-(2,2,2-trifluoro-ethoxy)-benzenesulfonyl]-2-(1-cyano-cyclopropylcarbamoyl)-pyrrolidine-1-carboxylic acid 4-chloro-phenyl ester] | ≥ 25 µM | 1.75 nM | – | –
Cc1cc(N2C[C@H](S(=O)(=O)c3ccccc3Cl)C[C@H]2C(=O)NC2(C#N)CC2)n(-c2ccc(C(F)(F)F)cc2)n1 [Example 253, (2S,4R)-4-(2-Chloro-benzenesulfonyl)-1-[5-methyl-2-(4-trifluoromethyl-phenyl)-2H-pyrazol-3-yl]-pyrrolidine-2-carboxylic acid (1-cyano-cyclopropyl)-amide] | 1.38 µM | 1.1 nM | – | –
Cc1cc(N2C[C@H](S(=O)(=O)c3ccccc3Cl)C[C@H]2C(=O)NC2(C#N)CC2)n(-c2ccnc(Cl)c2)n1 [Example 254, (2S,4R)-4-(2-Chloro-benzenesulfonyl)-1-[2-(2-chloro-pyridin-4-yl)-5-methyl-2H-pyrazol-3-yl]-pyrrolidine-2-carboxylic acid (1-cyano-cyclopropyl)-amide] | 2.26 µM | 0.83 nM | – | –
N#CC1(NC(=O)[C@@H]2C[C@@H](S(=O)(=O)c3ccc(C4CC4)cc3C(F)(F)F)CN2C(=O)C2(C(F)(F)F)CC2)CC1 [Example 256, (2S,4R)-4-(4-Cyclopropyl-2-trifluoromethyl-benzenesulfonyl)-1-(1-trifluoromethyl-cyclopropanecarbonyl)-pyrrolidine-2-carboxylic acid (1-cyano-cyclopropyl)-amide] | 45.7 µM | 0.26 nM | – | –
Cc1cc(-c2ccc(S(=O)(=O)[C@@H]3C[C@@H](C(=O)NC4(C#N)CC4)N(C(=O)C4(C)CC4)C3)c(C(F)(F)F)c2)ccn1 [Example 257, (2S,4R)-1-(1-M ethyl-cyclopropanecarbonyl)-4-[4-(2-methyl-pyridin-4-yl)-2-trifluoromethyl-benzenesulfonyl]-pyrrolidine-2-carboxylic acid (1-cyano-cyclopropyl)-amide] | 48.2 µM | 0.195 nM | – | –
CC1(C(=O)N2C[C@H](S(=O)(=O)c3ccc(-c4ccnc(Cl)c4)cc3C(F)(F)F)C[C@H]2C(=O)NC2(C#N)CC2)CC1 [Example 258, (2S,4R)-4-[4-(2-Chloro-pyridin-4-yl)-2-trifluoromethyl-benzenesulfonyl]-1-(1-methyl-cyclopropanecarbonyl)-pyrrolidine-2-carboxylic acid (1-cyano-cyclopropyl)-amide] | 58 µM | 0.19 nM | – | –
CC1(C(=O)N2C[C@H](S(=O)(=O)c3ccc(-c4ccc(F)cc4F)cc3C(F)(F)F)C[C@H]2C(=O)NC2(C#N)CC2)CC1 [Example 259, (2S,4R)-4-(2′,4′-Difluoro-3-trifluoromethyl-biphenyl-4-sulfonyl)-1-(1-methyl-cyclopropanecarbonyl)-pyrrolidine-2-carboxylic acid (1-cyano-cyclopropyl)-amide] | 79.5 µM | 0.19 nM | – | –
